The text below walks through data of patent US12503475B2 (Centessa Pharmaceuticals (UK) Limited, priority 2020, dated 2025).

The target of this assay is T1, human orexin type 2 receptor (hOX2R) (Homo sapiens, UniProt O43614).
T1 construct: expressed in transfected cells
T1 sequence (O43614 1-444): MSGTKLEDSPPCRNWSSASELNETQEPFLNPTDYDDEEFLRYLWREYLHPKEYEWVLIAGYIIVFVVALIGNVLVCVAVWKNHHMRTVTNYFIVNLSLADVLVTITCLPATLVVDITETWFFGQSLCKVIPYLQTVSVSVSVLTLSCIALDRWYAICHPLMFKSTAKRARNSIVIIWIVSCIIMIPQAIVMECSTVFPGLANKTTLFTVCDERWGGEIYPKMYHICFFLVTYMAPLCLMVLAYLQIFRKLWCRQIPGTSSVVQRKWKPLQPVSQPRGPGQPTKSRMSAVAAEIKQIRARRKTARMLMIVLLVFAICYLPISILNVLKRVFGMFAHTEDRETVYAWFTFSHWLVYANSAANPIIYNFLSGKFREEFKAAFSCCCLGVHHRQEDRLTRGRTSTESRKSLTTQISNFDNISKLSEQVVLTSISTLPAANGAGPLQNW
Put plainly: Measurement of orexin type 2 receptor agonist activity (FLIPR calcium fluorescence). It is filed as cell-based. Conditions: CHO cells expressing hOX2R, FLIPR calcium fluorescence; for EC50: read-out: hOx2 pEC50 (converted); for Emax: CHO, read-out: hOx2 Emax (%). An outline of the steps: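 Agonism was read as fluorescence in cells stably expressing human OX2R. E. is the response at 10 μM relative to orexin A as full agonist (100%).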

By Emax is commonly meant the greatest response seen or fitted, relative to the assay's reference. Consider `O=C(NCC1(F)CC1)N1CC2(CC2)[C@H](NS(=O)(=O)CF)[C@@H]1Cc1cccc(-c2ccccc2)c1F` [Compound 157, (6S,7S)-6-((2-fluoro-[1,1′-biphenyl]-3-yl)methyl)-N-((1-fluorocyclopropyl)methyl)-7-((fluoromethyl)sulfonamido)-5-azaspiro[2.4]heptane-5-carboxamide], for which the EC50 was 0.0794 to 1 nM and the Emax lay in the range of 90 to 100%.
The like results for `C[C@H](CF)NC(=O)N1CC2(CC2)[C@H](NS(=O)(=O)CF)[C@@H]1Cc1cccc(-c2ccccc2)c1F` [Compound 158] were, in that order, 0.0794 to 1 nM and 90 to 100%.
Regarding `C[C@H](F)C(=O)N1CC2(CC2)[C@H](NS(=O)(=O)C(F)F)[C@@H]1Cc1cccc(-c2ccccc2)c1F` [Compound 160, 1,1-difluoro-N-((6S,7S)-6-((2-fluoro-[1,1′-biphenyl]-3-yl)methyl)-5-((S)-2-fluoropropanoyl)-5-azaspiro[2.4]heptan-7-yl)methanesulfonamide], the EC50 is 0.0794 to 1 nM and the Emax fell in the range of 90 to 100%.
As for `CS(=O)(=O)N[C@@H]1[C@H](Cc2cccc(-c3cccc(Cl)c3)c2F)N(C(=O)[C@H]2CCO2)CC12CC2` [Compound 161, N-((6S,7S)-6-((3′-chloro-2-fluoro-[1,1′-biphenyl]-3-yl)methyl)-5-((R)-oxetane-2-carbonyl)-5-azaspiro[2.4]heptan-7-yl)methanesulfonamide], the EC50 is 1 to 10 nM and the Emax was in the range of 90 to 100%.
Turning to `CC(C)S(=O)(=O)N[C@@H]1[C@H](Cc2cccc(-c3ccccc3)c2F)N(C(=O)[C@H]2CCO2)CC12CC2` [Compound 162, N-((6S,7S)-6-((2-fluoro-[1,1′-biphenyl]-3-yl)methyl)-5-((R)-oxetane-2-carbonyl)-5-azaspiro[2.4]heptan-7-yl)propane-2-sulfonamide], the EC50 was 1 to 10 nM and the Emax lay within 90 to 100%.
The like results for `O=C([C@H]1CCO1)N1CC2(CC2)[C@H](NS(=O)(=O)C(F)F)[C@@H]1Cc1cccc(-c2ccccc2F)c1F` [Compound 163, N-((6S,7S)-6-((2,2′-difluoro-[1,1′-biphenyl]-3-yl)methyl)-5-((R)-oxetane-2-carbonyl)-5-azaspiro[2.4]heptan-7-yl)-1,1-difluoromethanesulfonamide] were, in that order, 1 to 10 nM and 90 to 100%.
Consider `CC(C)(O)C(=O)N1CC2(CC2)[C@H](NS(=O)(=O)C(F)F)[C@@H]1Cc1cccc(-c2cccc(F)c2)c1F` [Compound 164, N-((6S,7S)-6-((2,3′-difluoro-[1,1′-biphenyl]-3-yl)methyl)-5-(2-hydroxy-2-methylpropanoyl)-5-azaspiro[2.4]heptan-7-yl)-1,1-difluoromethanesulfonamide], for which the EC50 was 10 to 100 nM and the Emax lay in the range of 80 to 90%.
With `O=C(NCC(F)F)N1CC2(CC2)[C@H](NS(=O)(=O)C(F)F)[C@@H]1Cc1cccc(-c2ccccc2)c1F` [Compound 165, (6S,7S)-N-(2,2-difluoroethyl)-7-((difluoromethyl)sulfonamido)-6-((2-fluoro-[1,1′-biphenyl]-3-yl)methyl)-5-azaspiro[2.4]heptane-5-carboxamide], the EC50 was 1 to 10 nM and the Emax was 90 to 100%.
Consider `O=C(NCC1(F)CC1)N1CC2(CC2)[C@H](NS(=O)(=O)C(F)F)[C@@H]1Cc1cccc(-c2ccccc2)c1F` [Compound 166, (6S,7S)-7-((difluoromethyl)sulfonamido)-6-((2-fluoro-[1,1′-biphenyl]-3-yl)methyl)-N-((1-fluorocyclopropyl)methyl)-5-azaspiro[2.4]heptane-5-carboxamide], for which the EC50 was 1 to 10 nM and the Emax fell in the range of 90 to 100%.
As to `O=C([C@H]1CCO1)N1CC2(CC2)[C@H](NS(=O)(=O)C(F)(F)F)[C@@H]1Cc1cccc(-c2ccccc2)c1F` [Compound 167, 1,1,1-trifluoro-N-((6S,7S)-6-((2-fluoro-[1,1′-biphenyl]-3-yl)methyl)-5-((R)-oxetane-2-carbonyl)-5-azaspiro[2.4]heptan-7-yl)methanesulfonamide], the EC50 is 10 to 100 nM and the Emax lay within 80 to 90%.
Consider `O=C([C@H]1CCO1)N1CC2(CC2)[C@H](NS(=O)(=O)CF)[C@@H]1Cc1cccc(-c2cccc(F)c2F)c1F` [Compound 168, 1-fluoro-N-((6S,7S)-5-((R)-oxetane-2-carbonyl)-6-((2,2′,3′-trifluoro-[1,1′-biphenyl]-3-yl)methyl)-5-azaspiro[2.4]heptan-7-yl)methanesulfonamide], for which the EC50 is 1 to 10 nM and the Emax was 90 to 100%.
For the molecule `O=C([C@H]1CCO1)N1CC2(CC2)[C@H](NS(=O)(=O)CF)[C@@H]1Cc1cccc(-c2cc(F)ccc2F)c1F` [Compound 169, 1-fluoro-N-((6S,7S)-5-((R)-oxetane-2-carbonyl)-6-((2,2′,5′-trifluoro-[1,1′-biphenyl]-3-yl)methyl)-5-azaspiro[2.4]heptan-7-yl)methanesulfonamide], the EC50 is 1 to 10 nM and the Emax is 90 to 100%.
For `O=C([C@@H](O)C1CC1)N1CC2(CC2)[C@H](NS(=O)(=O)C(F)F)[C@@H]1Cc1cccc(-c2ccccc2)c1F` [Compound 170, N-((6S 7S)-5-((S)-2-cyclopropyl-2-hydroxyacetyl)-6-((2-fluoro-[1,1′-biphenyl]-3-yl)methyl)-5-azaspiro[2.4]heptan-7-yl)-1,1-difluoromethanesulfonamide], the EC50 is 1 to 10 nM and the Emax lay in the range of 90 to 100%.
The like results for `O=C([C@H]1CCO1)N1CC2(CC2)[C@H](NS(=O)(=O)C(F)F)[C@@H]1Cc1cccc(-c2cc(F)ccc2F)c1F` [Compound 171, 1,1-difluoro-N-((6S,7S)-5-((R)-oxetane-2-carbonyl)-6-((2,2′,5′-trifluoro-[1,1′-biphenyl]-3-yl)methyl)-5-azaspiro[2A]heptan-7-yl)methanesulfonamide] were, in that order, 1 to 10 nM and 90 to 100%.
As to `O=C([C@H]1CCO1)N1CC2(CC2)[C@H](NS(=O)(=O)C(F)F)[C@@H]1Cc1cccc(-c2cccc(F)c2F)c1F` [Compound 172], the EC50 was 1 to 10 nM and the Emax is 90 to 100%.
For the molecule `[2H]c1c([2H])c([2H])c(-c2cccc(C[C@H]3[C@@H](NS(=O)(=O)C(F)F)C4(CC4)CN3C(=O)[C@H]3CCO3)c2F)c([2H])c1[2H]` [Compound 173, 1,1-difluoro-N-((6S,7S)-6-((2-fluoro-[1,1′-biphenyl]-3-yl-2′,3′,4′,5′,6′-d5)methyl)-5-((R)-oxetane-2-carbonyl)-5-azaspiro[2.4]heptan-7-yl)methanesulfonamide], the EC50 is 1 to 10 nM and the Emax fell in the range of 90 to 100%.
For `O=C([C@H](O)CF)N1CC2(CC2)[C@H](NS(=O)(=O)C(F)F)[C@@H]1Cc1cccc(-c2ccccc2)c1F` [Compound 174, 1,1-difluoro-N-((6S,7S)-5-((S)-3-fluoro-2-hydroxypropanoyl)-6-((2-fluoro-[1,1′-biphenyl]-3-yl)methyl)-5-azaspiro[2.4]heptan-7-yl)methanesulfonamide], the EC50 is 1 to 10 nM and the Emax is 90 to 100%.
In the case of `O=C([C@H]1CCO1)N1CC2(CC2)[C@H](NS(=O)(=O)C(F)F)[C@@H]1Cc1cc(F)cc(-c2cccc(F)c2)c1F` [Compound 176, 1,1-difluoro-N-((6S,7S)-5-((R)-oxetane-2-carbonyl)-6-((2,3′,5-trifluoro-[1,1′-biphenyl]-3-yl)methyl)-5-azaspiro[2.4]heptan-7-yl)methanesulfonamide], the EC50 is 1 to 10 nM and the Emax lay within 90 to 100%.
